According to the supplement of paper PMC6045584:
± gives the standard deviation of the averaged measurements.

Key:
[1] = compound: COc1cc(CCc2cc(NC(=O)c3ccc(N4CC(C)NC(C)C4)cc3)n[nH]2)cc(OC)c1 [AZD4547]; assay: surviving fraction relative to DMSO-only wells; higher = less growth inhibition; conditions: exposure time: 5 days
Summary of the method: (§1)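 Continuous five-day exposure to inhibitors at 0.5, 1, 5, 10, 50, 100, 500 and 1000 nM started 24 hours after log-phase tumour cell lines were seeded at 250–500 cells per well in 384-well plates. Luminescence was read after 10 minutes at room temperature. Viability is given as surviving fraction, meaning CellTiter-Glo luminescence normalised to the median of DMSO-only wells.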

[2] = compound: CN(Cc1cnc2nc(N)nc(N)c2n1)c1ccc(C(=O)N[C@@H](CCC(=O)O)C(=O)O)cc1 [METHOTREXATE]; assay: as above; conditions: exposure time: 5 days
Summary of the method: as §1

Test System	surviving fraction ([1]; 0.5 nM)	surviving fraction ([1]; 1 nM)	surviving fraction ([1]; 5 nM)	surviving fraction ([1]; 10 nM)	surviving fraction ([1]; 50 nM)	surviving fraction ([1]; 100 nM)	surviving fraction ([1]; 500 nM)	surviving fraction ([1]; 1000 nM)	surviving fraction ([2]; 0.5 nM)	surviving fraction ([2]; 1 nM)	surviving fraction ([2]; 5 nM)	surviving fraction ([2]; 10 nM)	surviving fraction ([2]; 50 nM)	surviving fraction ([2]; 100 nM)	surviving fraction ([2]; 500 nM)	surviving fraction ([2]; 1000 nM)
22RV1 PROSTATE	1 ± 0.06	1.01 ± 0.059	1.02 ± 0.044	1.07 ± 0.056	0.998 ± 0.048	1.03 ± 0.053	1.1 ± 0.084	1.08 ± 0.082	1.06 ± 0.075	0.984 ± 0.11	0.946 ± 0.15	0.964 ± 0.12	0.452 ± 0.016	0.325 ± 0.013	0.285 ± 0.097	0.279 ± 0.099
93VU HEADNECK	1.01 ± 0.063	1.08 ± 0.058	1.08 ± 0.09	1.11 ± 0.05	1.11 ± 0.042	1.16 ± 0.089	1.1 ± 0.077	0.975 ± 0.086	1.03 ± 0.099	1.08 ± 0.091	1.16 ± 0.11	1.18 ± 0.063	0.854 ± 0.081	1.02 ± 0.051	0.702 ± 0.049	0.671 ± 0.018
143B BONE	0.948 ± 0.096	1.011 ± 0.0042	1.04 ± 0.014	1.02 ± 0.067	0.921 ± 0.13	1.01 ± 0.06	0.994 ± 0.04	0.974 ± 0.1	1.06 ± 0.018	1.04 ± 0.016	1.03 ± 0.041	0.471 ± 0.022	0.379 ± 0.033	0.174 ± 0.014	0.085 ± 0.0071	0.0875 ± 0.016
A549 LUNG	0.984 ± 0.02	1.03 ± 0.064	1.01 ± 0.039	1.02 ± 0.069	0.9867 ± 0.0075	1.03 ± 0.066	0.983 ± 0.026	1.031 ± 0.007	1.06 ± 0.07	1.06 ± 0.043	1.04 ± 0.023	1.06 ± 0.036	0.237 ± 0.0061	0.219 ± 0.0071	0.213 ± 0.0055	0.218 ± 0.0055
ASKA SYNOVIAL	1.15 ± 0.06	1.11 ± 0.015	1.2 ± 0.058	1.12 ± 0.021	1.16 ± 0.036	1.08 ± 0.084	0.877 ± 0.059	0.658 ± 0.041	1.13 ± 0.14	1.07 ± 0.067	1.13 ± 0.048	1.08 ± 0.083	1.23 ± 0.094	1.18 ± 0.087	1.19 ± 0.086	1.12 ± 0.09
BT20 BREAST	1.12 ± 0.13	1.08 ± 0.071	1.11 ± 0.059	1.13 ± 0.061	1.05 ± 0.072	1.04 ± 0.072	1.15 ± 0.043	0.968 ± 0.15	1.16 ± 0.083	1.15 ± 0.095	1.12 ± 0.075	1.1 ± 0.087	0.992 ± 0.1	0.995 ± 0.089	0.998 ± 0.021	0.989 ± 0.1
BT549 BREAST	1.16 ± 0.2	1.06 ± 0.055	1.16 ± 0.18	1.19 ± 0.13	1.04 ± 0.12	0.95 ± 0.096	0.968 ± 0.094	0.861 ± 0.052	1.11 ± 0.16	1.04 ± 0.034	1 ± 0.063	1.03 ± 0.11	0.107 ± 0.012	0.044 ± 0.0053	0.0323 ± 0.0055	0.039 ± 0.011
CADOES1 SOFT TISSUE	0.988 ± 0.032	1.02 ± 0.097	0.977 ± 0.1	0.973 ± 0.046	0.912 ± 0.085	0.955 ± 0.017	1.09 ± 0.11	0.992 ± 0.11	0.973 ± 0.11	1.02 ± 0.14	0.869 ± 0.052	0.672 ± 0.12	0.288 ± 0.013	0.229 ± 0.0093	0.226 ± 0.021	0.242 ± 0.011
CAL51 BREAST	0.9767 ± 0.007	0.977 ± 0.035	0.937 ± 0.029	0.849 ± 0.052	0.7553 ± 0.0068	0.738 ± 0.022	0.616 ± 0.021	0.602 ± 0.059	1.06 ± 0.039	1.02 ± 0.021	1.02 ± 0.035	0.962 ± 0.052	0.243 ± 0.0049	0.142 ± 0.015	0.0995 ± 0.0051	0.09133 ± 0.00076
CAL120 BREAST	0.945 ± 0.043	0.9817 ± 0.0068	0.937 ± 0.03	0.888 ± 0.025	0.713 ± 0.029	0.681 ± 0.019	0.552 ± 0.05	0.491 ± 0.039	0.961 ± 0.032	0.96 ± 0.086	0.721 ± 0.027	0.31 ± 0.026	0.328 ± 0.0043	0.336 ± 0.0094	0.333 ± 0.0045	0.335 ± 0.012
CASKI CERVIX	0.927 ± 0.055	0.951 ± 0.033	1.01 ± 0.014	1.02 ± 0.073	0.961 ± 0.053	1.03 ± 0.048	0.805 ± 0.02	0.548 ± 0.019	0.941 ± 0.045	0.892 ± 0.058	0.946 ± 0.073	0.967 ± 0.031	0.533 ± 0.019	0.2303 ± 0.0015	0.192 ± 0.018	0.208 ± 0.027
CHLA90 AUTONOMIC GANGLIA	0.994 ± 0.075	1.04 ± 0.099	1.07 ± 0.07	1.01 ± 0.014	0.883 ± 0.051	0.692 ± 0.039	0.568 ± 0.029	0.473 ± 0.041	1.037 ± 0.006	1.01 ± 0.084	1 ± 0.035	0.995 ± 0.037	1.08 ± 0.11	1.13 ± 0.12	1.16 ± 0.11	1.19 ± 0.033
CME SYNOVIAL	1.21 ± 0.046	1.09 ± 0.063	1.29 ± 0.11	1.14 ± 0.14	1 ± 0.075	0.935 ± 0.097	0.761 ± 0.051	0.724 ± 0.035	1.2 ± 0.098	1.12 ± 0.069	0.755 ± 0.15	0.558 ± 0.062	0.612 ± 0.019	0.612 ± 0.034	0.561 ± 0.048	0.648 ± 0.046
COLO320DM LARGE INTESTINE	1.08 ± 0.027	1.11 ± 0.049	0.994 ± 0.036	0.997 ± 0.21	1.1 ± 0.076	1.05 ± 0.1	1.08 ± 0.078	1.1 ± 0.2	1.05 ± 0.045	1.04 ± 0.02	1.09 ± 0.056	0.648 ± 0.066	0.315 ± 0.011	0.315 ± 0.0081	0.307 ± 0.0097	0.295 ± 0.027
DU4475 BREAST	1.12 ± 0.37	0.979 ± 0.16	1.03 ± 0.27	0.998 ± 0.13	1.15 ± 0.3	1.08 ± 0.21	1.11 ± 0.21	1 ± 0.22	0.815 ± 0.2	0.988 ± 0.11	0.943 ± 0.16	0.933 ± 0.11	1.02 ± 0.049	1.09 ± 0.092	1.03 ± 0.13	1.01 ± 0.032
H23 LUNG	0.965 ± 0.059	1.06 ± 0.052	1.03 ± 0.055	1.04 ± 0.02	1.01 ± 0.037	1.05 ± 0.028	0.979 ± 0.075	0.964 ± 0.066	1.06 ± 0.054	0.996 ± 0.068	1.01 ± 0.062	0.461 ± 0.084	0.254 ± 0.015	0.236 ± 0.022	0.236 ± 0.016	0.222 ± 0.014
HCC38 BREAST	0.972 ± 0.24	0.947 ± 0.062	1.02 ± 0.2	1.11 ± 0.22	0.78 ± 0.14	0.801 ± 0.14	0.66 ± 0.11	0.785 ± 0.046	1.39 ± 0.32	1.22 ± 0.13	1.37 ± 0.2	1.43 ± 0.15	1.05 ± 0.28	0.803 ± 0.038	0.385 ± 0.086	0.359 ± 0.032
HCC70 BREAST	1.03 ± 0.11	1.12 ± 0.082	1.16 ± 0.045	1.14 ± 0.07	1.1 ± 0.091	1.15 ± 0.018	1.03 ± 0.098	0.946 ± 0.093	1.04 ± 0.079	1.14 ± 0.092	1.01 ± 0.09	1.12 ± 0.046	0.842 ± 0.043	0.789 ± 0.023	0.763 ± 0.025	0.787 ± 0.041
HCC78 LUNG	1.04 ± 0.2	1.14 ± 0.23	1.03 ± 0.13	0.986 ± 0.11	1.08 ± 0.039	1.13 ± 0.25	1.11 ± 0.25	1.1 ± 0.25	1 ± 0.064	0.847 ± 0.19	0.914 ± 0.12	0.831 ± 0.13	0.503 ± 0.056	0.448 ± 0.058	0.421 ± 0.032	0.41 ± 0.039
HCC202 BREAST	0.984 ± 0.2	1.17 ± 0.39	0.964 ± 0.22	1.04 ± 0.26	1.31 ± 0.41	1.16 ± 0.1	1.52 ± 0.38	1.18 ± 0.21	1.3 ± 0.45	1.26 ± 0.38	1.21 ± 0.097	1 ± 0.25	1.14 ± 0.16	1.16 ± 0.37	0.945 ± 0.21	1.15 ± 0.13
